Patent US7767685B2, “Adenosine A2B receptor antagonists” (King Pharmaceuticals Research and Development, Inc., priority 2006, dated 2010)

These molecules were tested against T1, human A2B adenosine receptors (Homo sapiens, UniProt P29275) (assay: Displacement of [3H]MRE2029F20 binding at human A2B adenosine receptors). Conditions: [3H]MRE2029F20 displacement, human A2B receptors (footnote: HEK293 cells; method: CHO cells), n = 3-6; geometric mean (95% confidence limits); read-out: Ki hA2B.
T1 construct: expressed in transfected cells; host or cells: CHO cells (whole cells)
T1 sequence (P29275 1-332): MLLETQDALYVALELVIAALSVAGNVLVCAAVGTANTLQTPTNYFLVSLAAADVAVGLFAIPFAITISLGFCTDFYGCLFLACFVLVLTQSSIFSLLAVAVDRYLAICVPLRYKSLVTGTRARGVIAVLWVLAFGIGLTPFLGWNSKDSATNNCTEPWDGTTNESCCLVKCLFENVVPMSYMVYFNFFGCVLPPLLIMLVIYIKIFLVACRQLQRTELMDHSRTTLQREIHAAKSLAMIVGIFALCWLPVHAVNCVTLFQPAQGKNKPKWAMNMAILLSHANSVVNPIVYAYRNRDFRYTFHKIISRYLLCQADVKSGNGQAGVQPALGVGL
Experimental: […] (Naunyn-Schmied. Arch Pharm. 1998, 357: 1-9). Briefly, the cells are grown adherently and maintained in Dulbecco's Modified Eagles Medium with nutrient mixture F12 (DMEM/F12) without nucleosides, containing 10% fetal calf serum, penicillin (100 U/mL), streptomycin (100 μg/mL), L-glutamine (2 mM) and Geneticin (G418, 0.2 mg/ml) at 37° C. in 5% CO2/95% air. For membrane preparation the culture medium is removed and the cells are washed with phosphate-buffered saline and scraped off T75 flasks in ice-cold hypo tonic buffer (5 mM Tris HCl, 1 mM EDTA, pH 7.4). The cell suspension is homogenized with Polytron, the homogenate is spun for 10 min at 1000×g and the supernatant is then centrifuged for 30 min at 100,000×g. The membrane pellet is suspended in 50 mM Tris HCl buffer (pH 7.4) for A1 adenosine receptors, in 50 mM Tris HCl, 10 mM MgCl2 (pH 7.4) for A2A adenosine receptors, in 50 mM Tris HCl, 10 mM MgCl2, 1 mM EDTA (pH 7.4) for A2B and A3 adenosine receptors.
All new synthesized compounds have been tested to evaluate their affinity to human A1, A2A, A2B and A3 adenosine receptors. […] Pharmacol., 2000, 57: 968-975). Non-specific binding is determined in the presence of 10 μM of CHA and this is always ≦10% of the total binding. […] recombinant A2A adenosine receptors is performed using a suspension of membranes (50 μg of protein/assay) and at least 6-8 different concentrations of studied antagonists for an incubation time of 60 min at 4° C. Non-specific binding is determined in the presence of 1 μM ZM 241385 and is about 20% of total binding. […] Non-specific binding is defined as binding in the presence of 1 μM MRE 3029F20 and is about 25% of total binding. […] Non-specific binding is defined as binding in the presence of 1 μM MRE 3008F20 and is about 25% of total binding. Bound and free radioactivity are separated by filtering the assay mixture through Whatman GF/B glass fiber filters using a Micro-Mate 196 cell harvester (Packard Instrument Co.). The filter bound radioactivity is counted on a Top Count (efficiency 57%) with Micro-Scint 20.
The protein concentration is determined according to a Bio-Rad method (Bradford, Anal Biochem. 1976, 72: 248-254) with bovine albumin as a standard reference. Inhibitory binding constant, Ki, values are calculated from those of IC50 according to Cheng & Prusoff equation (Biochem. Pharmacol 1973, 22: 3099-3108): Ki=IC50/(1+[C*]/KD*) where [C*] is the concentration of the radioligand and KD* its dissociation constant. A weighted non linear least-squares curve fitting program LIGAND (Munson et al., Anal. Biochem 1980, 107: 220-239) is used for computer analysis of inhibition experiments Data are expressed as geometric mean with 95% confidence limits in parentheses. Examples of Animal Models

Row | Structure (SMILES) | Ki
1 | CCCn1c(=O)c2[nH]c(-c3cc(C)n(CC(=O)Nc4ccccc4)n3)nc2n(CCC)c1=O [Example 1, 2-[3-(2,6-Dioxo-1,3-dipropyl-2,3,6,7-tetrahydro-1H-purin-8-yl)-5-methyl-pyrazol-1-yl]-N-phenyl-acetamide] | 15 nM
2 | CCCn1c(=O)c2[nH]c(-c3cc(C)n(CC(=O)Nc4ccc(I)cc4)n3)nc2n(CCC)c1=O [Example 2, 2-[3-(2,6-Dioxo-1,3-dipropyl-2,3,6,7-tetrahydro-1H-purin-8-yl)-5-methyl-pyrazol-1-yl]-N-(4-iodophenyl)-acetamide] | 28 nM
3 | CCCn1c(=O)c2[nH]c(-c3cc(C)n(CC(=O)Nc4ccc(F)cc4)n3)nc2n(CCC)c1=O [Example 5, 2-[3-(2,6-Dioxo-1,3-dipropyl-2,3,6,7-tetrahydro-1H-purin-8-yl)-5-methyl-pyrazol-1-yl]-N-(4-fluoro-phenyl)-acetamide] | 14 nM
4 | CCCn1c(=O)c2[nH]c(-c3cc(C)n(CC(=O)Nc4ccc(OC)cc4)n3)nc2n(CCC)c1=O [Example 6, 2-[3-(2,6-Dioxo-1,3-dipropyl-2,3,6,7-tetrahydro-1H-purin-8-yl)-5-methyl-pyrazol-1-yl]-N-(4-methoxyphenyl)-acetamide] | 12 nM
5 | CCCn1c(=O)c2[nH]c(-c3cc(C)n(CC(=O)Nc4ccc(C)c(C)c4)n3)nc2n(CCC)c1=O [Example 7, 2-[3-(2,6-Dioxo-1,3-dipropyl-2,3,6,7-tetrahydro-1H-purin-8-yl)-5-methyl-pyrazol-1-yl]-N-(3,4-dimethylphenyl)-acetamide] | 48 nM
6 | CCCn1c(=O)c2[nH]c(-c3cc(C)n(CC(=O)Nc4ccc(OC)c(OC)c4)n3)nc2n(CCC)c1=O [Example 8, 2-[3-(2,6-Dioxo-1,3-dipropyl-2,3,6,7-tetrahydro-1H-purin-8-yl)-5-methyl-pyrazol-1-yl]-N-(3,4-dimethoxyphenyl)-acetamide] | 60 nM
7 | CCCn1c(=O)c2[nH]c(-c3ccn(CC(=O)Nc4ccc(Cl)cc4)n3)nc2n(CCC)c1=O [Example 10, 2-[3-(2,6-Dioxo-1,3-dipropyl-2,3,6,7-tetrahydro-1H-purin-8-yl)-pyrazol-1-yl]-N-(4-chloro-phenyl)-acetamide] | 20 nM
8 | CCCn1c(=O)c2[nH]c(-c3cc(C)n(CC(=O)Nc4ccc(C(C)CC)cc4)n3)nc2n(CCC)c1=O (centres unmarked) [Example 12, 2-[3-(2,6-Dioxo-1,3-dipropyl-2,3,6,7-tetrahydro-1H-purin-8-yl)-5-methyl-pyrazol-1-yl]-N-(4-sec-butylphenyl)-acetamide] | > 1000 nM

Results, then the molecule that gave them:

Row | Ki | Structure (SMILES)
9 | 65 nM | CCCn1c(=O)c2[nH]c(-c3cc(C)n(CC(=O)Nc4cccc(OC)c4)n3)nc2n(CCC)c1=O [Example 14, 2-[3-(2,6-Dioxo-1,3-dipropyl-2,3,6,7-tetrahydro-1H-purin-8-yl)-5-methyl-pyrazol-1-yl]-N-(3-methoxylphenyl)-acetamide]
10 | 28 nM | CCCn1c(=O)c2[nH]c(-c3cc(C)n(CC(=O)Nc4cccc(Cl)c4)n3)nc2n(CCC)c1=O [Example 15, 2-[3-(2,6-Dioxo-1,3-dipropyl-2,3,6,7-tetrahydro-1H-purin-8-yl)-5-methyl-pyrazol-1-yl]-N-(3-chlorophenyl)-acetamide]
11 | 40 nM | CCCn1c(=O)c2[nH]c(-c3cc(C)n(CC(=O)Nc4ccc(Cl)c(Cl)c4)n3)nc2n(CCC)c1=O [Example 16, 2-[3-(2,6-Dioxo-1,3-dipropyl-2,3,6,7-tetrahydro-1H-purin-8-yl)-5-methyl-pyrazol-1-yl]-N-(3,4-dichlorophenyl)-acetamide]
12 | 56 nM | CCCn1c(=O)c2[nH]c(-c3cc(C)n(CC(=O)Nc4ccc(C)cc4)n3)nc2n(CCC)c1=O [Example 17, 2-[3-(2,6-Dioxo-1,3-dipropyl-2,3,6,7-tetrahydro-1H-purin-8-yl)-5-methyl-pyrazol-1-yl]-N-p-tolyl-acetamide]
13 | 222 nM | CCCn1c(=O)c2[nH]c(-c3nn(CC(=O)Nc4ccc(Cl)cc4)c(C)c3Cl)nc2n(CCC)c1=O [Example 18, 2-[4-Chloro-3-(2,6-dioxo-1,3-dipropyl-2,3,6,7-tetrahydro-1H-purin-8-yl)-5-methyl-pyrazol-1-yl]-N-(4-chlorophenyl)-acetamide]
14 | 250 nM | CCCn1c(=O)c2[nH]c(-c3nn(CC(=O)Nc4ccc(Cl)cc4)c(C)c3Br)nc2n(CCC)c1=O [Example 19, 2-[4-Bromo-3-(2,6-dioxo-1,3-dipropyl-2,3,6,7-tetrahydro-1H-purin-8-yl)-5-methyl-pyrazol-1-yl]-N-(4-chlorophenyl)-acetamide]
